Test results taken from ChEMBL document CHEMBL5032529, “Synthesis and evaluation of tetrahydroisoquinoline derivatives against Trypanosoma brucei rhodesiense” (Eur J Med Chem, 2021).

Assays:
[1] = test system: Trypanosoma brucei rhodesiense; experiment: Antitrypanosomal activity against Trypanosoma brucei rhodesiense STIB900 assessed as parasite growth inhibition; assay type: functional, organism-based
[2] = test system: Trypanosoma brucei rhodesiense; experiment: Antitrypanosomal activity against Trypanosoma brucei rhodesiense STIB900 assessed as parasite growth inhibition measured after 72 hrs by alamar blue dye based spectrofluorimetric analysis; assay type: functional, organism-based; settings: STIB900, 72 h
[3] = Selectivity index, ratio of IC50 for cytotoxicity against African green monkey Vero cells to IC50 for antitrypanosomal activity against Trypanosoma brucei rhodesiense STI B900; assay type: toxicity, cell-based; settings: read-out: Ratio IC50
Vero = experiment: Cytotoxicity against African green monkey Vero cells assessed as reduction in cell viability measured after 72 hrs by SRB assay; assay type: cell-based; settings: Chlorocebus sabaeus
[4] = Inhibition of Trypanosoma Trypanothione reductase in presence of NADPH by DTNB based colorimetric assay
Trypanosoma brucei = experiment: Antitrypanosomal activity against bloodstream form of Trypanosoma brucei assessed as parasite growth inhibition incubated for 3 days by resazurin staining based assay; assay type: functional, organism-based; settings: 72 h

SMILES	IC50 [1]	IC50 [2]	IC50 [4]	EC50 (Trypanosoma brucei)	selectivity ratio [3]	IC50 (Vero)
C=C1C[C@H]2OC(=O)C(=C)[C@@H]2[C@H](OC(=O)/C(C)=C/C)C[C@@]2(C)OC1=CC2=O	0.015 µM					
CN1Cc2ccc(OCc3ccc(-c4ccccc4)cc3)cc2[C@H](OC(=O)c2ccccc2)C1		16.3 µM			0.8	12.9 µM
Clc1ccc2c(c1)N(CCCN1CCN(CCCc3ccccc3)CC1)c1ccccc1S2			0.75 µM	0.775 µM		

Second part, led by results:

IC50 [1]	IC50 [2]	IC50 [4]	EC50 (Trypanosoma brucei)	SMILES	selectivity ratio [3]	IC50 (Vero)
	2.6 µM			OC1CNCc2c(OCc3cccc(Br)c3)cccc21 (stereo unspecified)	28.3	73.5 µM
	2.54 µM			OC1CNCc2c(OCc3ccc(Br)cc3)cccc21 (stereo unspecified)	> 19.7	> 50 µM
	16.5 µM			Cc1ccccc1COc1cccc2c1CNCC2O (stereo unspecified)	> 6.1	> 100 µM
	16.4 µM			CN1Cc2ccc(OCc3ccc(-c4ccccc4)cc3)cc2[C@@H](OC(=O)c2ccccc2)C1	0.6	10.5 µM
	2.01 µM			OC1CNCc2c(OCCC3CCCCC3)cccc21 (stereo unspecified)	12.6	25.3 µM
